In patent publication US20220047569A1, “METHOD AND COMPOUND FOR USE, IN TREATING AND/OR PREVENTING NETOSIS” (Jubilant EpiPad LLC, priority 2020, published 2022):

Key:
[1] = test system: Histone H3 Citrullination in Neutrophils; test: Citrullination ELISA (Citrullinated Histone H3) in calcium ionophore stimulated neutrophils; assay type: cell-based; conditions: Neutrophil; human neutrophils, 25 μM calcium ionophore, CitH3 ELISA
Procedure, shortened: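 Freshly isolated human donor neutrophils in RPMI with 2% BSA and 1 mM CaCl2 were pre-incubated 30 min with compound (10, 1, 0.1 μM), then stimulated 30 min with 25 μM calcium ionophore. After S7 nuclease digestion, lysates were assayed by citrullinated histone H3 ELISA (450 nm); IC50 from sigmoidal fits.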

[2] = test system: silica induced lung fibrosis; test: Silica induced pro-fibrotic lung model; assay type: in vivo, C57BL/6 female mice; conditions: 50 mg/kg PO, BID, day 7 to 11, therapeutic; silica mice
Procedure: The instillation of silica into the murine lung results in the development of fibrotic nodules that resemble simple silicotic nodular fibrosis, which develop in humans following some occupational exposures to dust and particulate aerosols. Silica can be delivered to rodents via aerosolization, intratracheal administration or oropharyngeal aspiration. C57BL/6 female mice at an age of 6-8 weeks were instilled with silica particles (2.5 mg/mouse) by non-surgical intratracheal (IT) method. The day of silica instillation was defined as day 0. Test compound was administered twice daily and standard of care was dosed once daily from day 7 to 11 for therapeutic intervention. Animals were monitored and evaluated for their clinical signs and body weight loss. Animals were euthanized on day 11 and the lungs were weighed and biomarkers were analyzed in lung.

DSS-induced colitis = test: Dextran sulfate sodium (DSS) induced colitis model; assay type: in vivo, C57BL/6 male mice; conditions: PO BID
Description: Ulcerative colitis (UC) is an intermittent inflammatory bowel disease of the colonic mucosa, with periods of exacerbated symptoms (the active phase of the disease), and periods that are relatively symptom-free (remission phase of disease). Among various chemical induced colitis models, DSS-induced colitis model is widely used because of its simplicity and many similarities with human ulcerative colitis. C57BL/6 male mice at 6-8 weeks of age were purchased from vivo biotech India (under the license from Taconic). The procedures involving the care and use of animals in the study was reviewed and approved by the Institutional Animal Care and Use Committee (IAEC/JDC/2018-161R) prior to conduct. During the study, the care and use of animals was in accordance with the principles outlined in the Guide for the Care and Use of Laboratory Animals, 8th Edition, 2010 (National Research Council) and every effort was made to minimize suffering. The animals were acclimatized for ˜10 days prior to experimental use. Mice were caged with free access to food and fresh water in a temperature-controlled room (22° C.-24° C.) on a 12 h light/dark cycle. On the day of DSS administration (day 0), labelled (using ear punch or any other convenient method) groups of control and experimental mice should be weighed and, if required, average group weight equilibrated so as to eliminate any significant weight difference between groups. Normal control animals were provided with regular drinking water and disease control animals were provided with 2.25% DSS in drinking water for 5 days (Day 1 to Day 5) and next 5 days, both the groups received regular drinking water (Day 6 to Day 10). DSS was replaced with fresh DSS formulation once in 2.5 days. Animals were dosed with Vehicle (0.5% Methyl cellulose in PBS+0.025% Tween-80), Compound 143, PO, bid and Fingolimod, PO, qd. Administration of 2.25% DSS in drinking water induced significant ulcerative colitis leading to ˜5-fold disease induction in mice of disease control group compared to normal control. […]

## N[C@@H]1CCCN(C(=O)c2cc3c4c(c2)nc(-c2cc5cccc(Cl)c5n2CC2CC2)n4CCO3)C1 [Compound 143, (R)-(3-aminopiperidin-1-yl)(2-(7-chloro-1-(cyclopropylmethyl)-1H-indol-2-yl)-3,4-dihydro-5-oxa-1,2a-diazaacenaphthylen-7-yl)methanone]
[1]
  IC50: 0.1 to 1 µM
[2]
  Fibronectin level: significant decrease
  Lung weight: significant decrease
DSS-induced colitis; 12.5 mg/kg
  Disease reversal compared to disease control: 8.7%
DSS-induced colitis; 25 mg/kg
  Disease reversal compared to disease control: 26.6%
DSS-induced colitis; 50 mg/kg
  Disease reversal compared to disease control: 45.5%
